Source: PubChem BioAssay AID2060909 (Molecular Pharmacology Branch, DTP, NCI, 2025)

System: 362531-283-R-J2-PDC complex spheroid viability
Test: Anticancer human tumor 362531-283-R-J2-PDC patient-derived colon adenocarcinoma cell line growth inhibition [RAS]
Details: for IC50: curve of first compound; for viability, T/C: stronger effect = lower value; active means viability on the fitted dose curve at most 10% of control; inactive means the rest
Procedure, shortened: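 Tumour cells grown as complex spheroids with HUVEC endothelial cells and mesenchymal stem cells, treated with RAS pathway inhibitor combinations. Each agent spans half-log steps from near clinical Cmax, or 10 microM where Cmax is unknown.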

[1] = second compound 0.000949 µM, first compound 0.0316 µM
[2] = second compound 0.000949 µM, first compound 0.1 µM
[3] = second compound 0.000949 µM, first compound 0.316 µM
[4] = second compound 0.000949 µM, first compound 1 µM
[5] = second compound 0.003 µM, first compound 0.0316 µM
[6] = second compound 0.003 µM, first compound 0.1 µM
[7] = second compound 0.003 µM, first compound 0.316 µM
[8] = second compound 0.003 µM, first compound 1 µM
[9] = second compound 0.00949 µM, first compound 0.0316 µM
[10] = second compound 0.00949 µM, first compound 0.1 µM
[11] = second compound 0.00949 µM, first compound 0.316 µM
[12] = second compound 0.00949 µM, first compound 1 µM
[13] = second compound 0.03 µM, first compound 0.0316 µM
[14] = second compound 0.03 µM, first compound 0.1 µM
[15] = second compound 0.03 µM, first compound 0.316 µM
[16] = second compound 0.03 µM, first compound 1 µM
[17] = second compound 0.0949 µM, first compound 0.0316 µM
[18] = second compound 0.0949 µM, first compound 0.1 µM
[19] = second compound 0.0949 µM, first compound 0.316 µM
[20] = second compound 0.0949 µM, first compound 1 µM
[21] = second compound 0.3 µM, first compound 0.0316 µM
[22] = second compound 0.3 µM, first compound 0.1 µM
[23] = second compound 0.3 µM, first compound 0.316 µM
[24] = second compound 0.3 µM, first compound 1 µM
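Further: spheroids exposed to the agents for 7 days before readout.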
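Wherever viability, T/C is given: luminescence viability as percent of DMSO vehicle control wells.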

CC(=O)OC12COC1CC(O)C1(C)C(=O)C(O)C3=C(C)C(OC(=O)C(O)C(NC(=O)OC(C)(C)C)c4ccccc4)CC(O)(C(OC(=O)c4ccccc4)C21)C3(C)C (stereo unspecified) + CCn1c(-c2cc(N3CCN(C)CC3)cnc2C(C)OC)c2c3cc(ccc31)-c1csc(n1)CC(NC(=O)C1CC1C)C(=O)N1CCCC(N1)C(=O)OCC(C)(C)C2
active: viability, T/C [16] 7.82% | viability, T/C (second compound 0.03 µM, first compound 3.16 µM) 8.32% | viability, T/C (second compound 0.03 µM, first compound 10 µM) 11.6% | viability, T/C [19] 9.07% | viability, T/C [20] 7.86% | viability, T/C (second compound 0.0949 µM, first compound 3.16 µM) 8.53% | viability, T/C (second compound 0.0949 µM, first compound 10 µM) 7.69% | viability, T/C [23] 7.36% | viability, T/C [24] 4.87% | viability, T/C (second compound 0.3 µM, first compound 3.16 µM) 5.33% | viability, T/C (second compound 0.3 µM, first compound 10 µM) 4.75%
214 nM: IC50 (second compound 0.000949 µM)
137 nM: IC50 (second compound 0.0949 µM)
215 nM: IC50 (second compound 0.003 µM)
< 31.6 nM: IC50 (second compound 0.3 µM)
inactive: viability, T/C [1] 92.9% | viability, T/C [2] 95.2% | viability, T/C [3] 27.5% | viability, T/C [4] 16.7% | viability, T/C (second compound 0.000949 µM, first compound 3.16 µM) 18.1% | viability, T/C (second compound 0.000949 µM, first compound 10 µM) 31.9% | viability, T/C [5] 103% | viability, T/C [6] 92.7% | viability, T/C [7] 28.7% | viability, T/C [8] 13.6% | viability, T/C (second compound 0.003 µM, first compound 3.16 µM) 19.1% | viability, T/C (second compound 0.003 µM, first compound 10 µM) 19.9% | viability, T/C [9] 94.2% | viability, T/C [10] 91% | viability, T/C [11] 18.8% | viability, T/C [12] 12.9% | viability, T/C (second compound 0.00949 µM, first compound 3.16 µM) 9.58% | viability, T/C (second compound 0.00949 µM, first compound 10 µM) 15.8% | viability, T/C [13] 76.8% | viability, T/C [14] 77.5% | viability, T/C [15] 14.2% | viability, T/C [17] 68.7% | viability, T/C [18] 65.5% | viability, T/C [21] 43.2% | viability, T/C [22] 20.1%
164 nM: IC50 (second compound 0.03 µM)
192 nM: IC50 (second compound 0.00949 µM)

CCc1c2c(nc3ccc(O)cc13)-c1cc3c(c(=O)n1C2)COC(=O)[C@]3(O)CC + CCn1c(-c2cc(N3CCN(C)CC3)cnc2C(C)OC)c2c3cc(ccc31)-c1csc(n1)CC(NC(=O)C1CC1C)C(=O)N1CCCC(N1)C(=O)OCC(C)(C)C2
35.8 nM: IC50 (second compound 0.03 µM)
active: viability, T/C (second compound 0.03 µM, first compound 0.3 µM) 7.44% | viability, T/C (second compound 0.0949 µM, first compound 0.3 µM) 5.26% | viability, T/C (second compound 0.3 µM, first compound 0.0949 µM) 5.23% | viability, T/C (second compound 0.3 µM, first compound 0.3 µM) 2.69%
inactive: viability, T/C (second compound 0.000949 µM, first compound 0.000949 µM) 94.3% | viability, T/C (second compound 0.000949 µM, first compound 0.003 µM) 90.9% | viability, T/C (second compound 0.000949 µM, first compound 0.00949 µM) 80.9% | viability, T/C (second compound 0.000949 µM, first compound 0.03 µM) 61.4% | viability, T/C (second compound 0.000949 µM, first compound 0.0949 µM) 26.2% | viability, T/C (second compound 0.000949 µM, first compound 0.3 µM) 16.4% | viability, T/C (second compound 0.003 µM, first compound 0.000949 µM) 97.5% | viability, T/C (second compound 0.003 µM, first compound 0.003 µM) 99.7% | viability, T/C (second compound 0.003 µM, first compound 0.00949 µM) 75.1% | viability, T/C (second compound 0.003 µM, first compound 0.03 µM) 61.8% | viability, T/C (second compound 0.003 µM, first compound 0.0949 µM) 23.4% | viability, T/C (second compound 0.003 µM, first compound 0.3 µM) 19.2% | viability, T/C (second compound 0.00949 µM, first compound 0.000949 µM) 101% | viability, T/C (second compound 0.00949 µM, first compound 0.003 µM) 97.1% | viability, T/C (second compound 0.00949 µM, first compound 0.00949 µM) 74.4% | viability, T/C (second compound 0.00949 µM, first compound 0.03 µM) 63.6% | viability, T/C (second compound 0.00949 µM, first compound 0.0949 µM) 26.9% | viability, T/C (second compound 0.00949 µM, first compound 0.3 µM) 12.6% | viability, T/C (second compound 0.03 µM, first compound 0.000949 µM) 94.3% | viability, T/C (second compound 0.03 µM, first compound 0.003 µM) 89.1% | viability, T/C (second compound 0.03 µM, first compound 0.00949 µM) 69.4% | viability, T/C (second compound 0.03 µM, first compound 0.03 µM) 59.5% | viability, T/C (second compound 0.03 µM, first compound 0.0949 µM) 25.3% | viability, T/C (second compound 0.0949 µM, first compound 0.000949 µM) 76.8% | viability, T/C (second compound 0.0949 µM, first compound 0.003 µM) 65.3% | viability, T/C (second compound 0.0949 µM, first compound 0.00949 µM) 61.4% | viability, T/C (second compound 0.0949 µM, first compound 0.03 µM) 33.8% | viability, T/C (second compound 0.0949 µM, first compound 0.0949 µM) 14.2% | viability, T/C (second compound 0.3 µM, first compound 0.000949 µM) 33.5% | viability, T/C (second compound 0.3 µM, first compound 0.003 µM) 45.4% | viability, T/C (second compound 0.3 µM, first compound 0.00949 µM) 17.2% | viability, T/C (second compound 0.3 µM, first compound 0.03 µM) 13.4%
14.4 nM: IC50 (second compound 0.0949 µM)
37.8 nM: IC50 (second compound 0.003 µM)
42.1 nM: IC50 (second compound 0.000949 µM)
< 0.949 nM: IC50 (second compound 0.3 µM)
41.4 nM: IC50 (second compound 0.00949 µM)

Nc1ccn(C2OC(CO)C(O)C2(F)F)c(=O)n1 (stereo unspecified) + CCn1c(-c2cc(N3CCN(C)CC3)cnc2C(C)OC)c2c3cc(ccc31)-c1csc(n1)CC(NC(=O)C1CC1C)C(=O)N1CCCC(N1)C(=O)OCC(C)(C)C2
80 nM: IC50 (second compound 0.0949 µM)
181 nM: IC50 (second compound 0.000949 µM)
inactive: viability, T/C (second compound 0.000949 µM, first compound 0.00316 µM) 98.9% | viability, T/C (second compound 0.000949 µM, first compound 0.01 µM) 108% | viability, T/C [1] 80.5% | viability, T/C [2] 75.7% | viability, T/C [3] 23.7% | viability, T/C [4] 27.7% | viability, T/C (second compound 0.003 µM, first compound 0.00316 µM) 110% | viability, T/C (second compound 0.003 µM, first compound 0.01 µM) 91% | viability, T/C [5] 82% | viability, T/C [6] 75.7% | viability, T/C [7] 18.9% | viability, T/C [8] 29.3% | viability, T/C (second compound 0.00949 µM, first compound 0.00316 µM) 95% | viability, T/C (second compound 0.00949 µM, first compound 0.01 µM) 101% | viability, T/C [9] 66.7% | viability, T/C [10] 69.5% | viability, T/C [11] 17.6% | viability, T/C [12] 24.9% | viability, T/C (second compound 0.03 µM, first compound 0.00316 µM) 97.9% | viability, T/C (second compound 0.03 µM, first compound 0.01 µM) 86.8% | viability, T/C [13] 75.5% | viability, T/C [14] 63.6% | viability, T/C [15] 15.3% | viability, T/C [16] 21.6% | viability, T/C (second compound 0.0949 µM, first compound 0.00316 µM) 80.2% | viability, T/C (second compound 0.0949 µM, first compound 0.01 µM) 80% | viability, T/C [17] 64.4% | viability, T/C [18] 49.9% | viability, T/C [19] 10.8% | viability, T/C [20] 17.4% | viability, T/C (second compound 0.3 µM, first compound 0.00316 µM) 40.9% | viability, T/C (second compound 0.3 µM, first compound 0.01 µM) 46.2% | viability, T/C [21] 28.5% | viability, T/C [22] 25.1% | viability, T/C [23] 14.6% | viability, T/C [24] 10.3%
128 nM: IC50 (second compound 0.00949 µM)
141 nM: IC50 (second compound 0.03 µM)
177 nM: IC50 (second compound 0.003 µM)
< 3.16 nM: IC50 (second compound 0.3 µM)
